Assay results taken from ChEMBL document CHEMBL5727817, “3′ end caps, 5′ end caps and combinations thereof for therapeutic RNA” (2020).
pKd: −log10 of the molar value.

Assay: thermodynamic (Steady State Affinity) binding analysis: A subset of compounds was further characterized to determine dissociation constants using thermodynamic (Steady State Affinity) binding analysis.

pKd	Compound
7.52	Nc1nc([O-])c2c(n1)n([C@H]1O[C@@H](COP(=O)(O)O)[C@H](O)[C@@H]1O)c[n+]2Cc1ccccc1CS(=O)(=O)c1ccccc1
6.39	Nc1nc([O-])c2c(n1)n([C@H]1O[C@@H](COP(=O)(O)O)[C@H](O)[C@@H]1O)c[n+]2Cc1ccc(-c2ccccc2F)cc1
6.24	Nc1nc([O-])c2c(n1)n([C@H]1O[C@@H](COP(=O)(O)O)[C@H](O)[C@@H]1O)c[n+]2Cc1cccc(OCc2ccccc2)c1
6.96	Nc1nc([O-])c2c(n1)n([C@H]1O[C@@H](COP(=O)(O)O)[C@H](O)[C@@H]1O)c[n+]2Cc1ccc(-c2ccccc2)c(Cl)c1
6.80	CO[C@H]1[C@@H](O)[C@H](COP(=O)(O)O)O[C@@H]1n1c[n+](CCOc2ccc(Cl)cc2)c2c([O-])nc(N)nc21
6.66	Nc1nc([O-])c2c(n1)n([C@H]1O[C@@H](COP(=O)(O)O)[C@H](O)[C@@H]1O)c[n+]2Cc1cccc(Oc2ccccc2)c1
6.52	Nc1nc([O-])c2c(n1)n([C@H]1O[C@@H](COP(=O)(O)O)[C@H](O)[C@@H]1O)c[n+]2Cc1ccc(-c2ccccc2)cc1
